What was measured:
[1] = system: ECFC/ADSC co-culture cell nuclei number
[2] = system: endothelial tube formation in co-cultures of ECFCs and ADSCs treated with VEGF; assay: cells; assay type: cell-based, human
RKO = assay: cells; assay type: cell-based; conditions: assay number 29
[3] = system: alkaline phosphatase (ALP) activity in C2C12 cells; assay type: cell-based; conditions: assay number 6; concentration response
SW480 = assay: cells; assay type: cell-based; conditions: assay number 24
Colo320 = assay: cells; assay type: cell-based; conditions: assay number 27
DLD-1 = assay: cells; assay type: cell-based; conditions: assay number 23
hJAK2 = molecular target: T1, hJAK2 (Homo sapiens, UniProt O60674); assay: Cerep LANCE kinase assay hJAK2 (S1 assay 33); assay type: biochemical; conditions: assay number 33
T1 construct: purchased Cerep (LANCE kinase assay platform, contract assay)

HeLa cells = assay: cells; assay type: cell-based; conditions: for Hela CellCycMod PI 2N IC50/EC50: assay number 14; for Hela CellCycMod PI S Phase IC50/EC50: assay number 15; for Hela CellCycMod PI 4N IC50/EC50: assay number 16; for Hela CellCycMod PI MI IC50/EC50: assay number 17; for Hela CellCycMod PI Cell Number IC50/EC50: assay number 18
HCT116 = assay: cells; assay type: cell-based; conditions: assay number 25; basal
hp70S6K1 (RPS6KB1) = molecular target: T2, hp70S6K1 (RPS6KB1) (Homo sapiens, UniProt P23443); assay: Cerep LANCE kinase assay hp70S6K1 (S1 assay 31); assay type: biochemical; conditions: assay number 31
T2 construct: purchased Cerep (LANCE kinase assay platform, contract assay)

[4] = system: HCT116 cells treated with a GSK3β inhibitor; assay: cells; assay type: cell-based; conditions: assay number 26; GSK3b inhibitor pretreated
hFLT3 = molecular target: T3, hFLT3 (Homo sapiens, UniProt P36888); assay: Cerep LANCE kinase assay hFLT3 (S1 assay 35); assay type: biochemical; conditions: assay number 35
T3 construct: purchased Cerep (LANCE kinase assay platform, contract assay)

hGSK3b = molecular target: T4, hGSK3b (Homo sapiens, UniProt P49841); assay: Cerep LANCE kinase assay hGSK3b (S1 assay 34); assay type: biochemical; conditions: assay number 34
T4 construct: purchased Cerep (LANCE kinase assay platform, contract assay)

[5] = system: nuclear β-catenin in C2C12 cells; assay: cells; assay type: cell-based; conditions: assay number 5; concentration response
hKDR = molecular target: T5, hKDR (Homo sapiens, UniProt P35968); assay: Cerep LANCE kinase assay hKDR (S1 assay 32); assay type: biochemical; conditions: assay number 32
T5 construct: purchased Cerep (LANCE kinase assay platform, contract assay)

SNU-C1 = assay: cells; assay type: cell-based; conditions: assay number 30
HT-29 = assay: cells; assay type: cell-based; conditions: assay number 28

T5 sequence (P35968 20-1356): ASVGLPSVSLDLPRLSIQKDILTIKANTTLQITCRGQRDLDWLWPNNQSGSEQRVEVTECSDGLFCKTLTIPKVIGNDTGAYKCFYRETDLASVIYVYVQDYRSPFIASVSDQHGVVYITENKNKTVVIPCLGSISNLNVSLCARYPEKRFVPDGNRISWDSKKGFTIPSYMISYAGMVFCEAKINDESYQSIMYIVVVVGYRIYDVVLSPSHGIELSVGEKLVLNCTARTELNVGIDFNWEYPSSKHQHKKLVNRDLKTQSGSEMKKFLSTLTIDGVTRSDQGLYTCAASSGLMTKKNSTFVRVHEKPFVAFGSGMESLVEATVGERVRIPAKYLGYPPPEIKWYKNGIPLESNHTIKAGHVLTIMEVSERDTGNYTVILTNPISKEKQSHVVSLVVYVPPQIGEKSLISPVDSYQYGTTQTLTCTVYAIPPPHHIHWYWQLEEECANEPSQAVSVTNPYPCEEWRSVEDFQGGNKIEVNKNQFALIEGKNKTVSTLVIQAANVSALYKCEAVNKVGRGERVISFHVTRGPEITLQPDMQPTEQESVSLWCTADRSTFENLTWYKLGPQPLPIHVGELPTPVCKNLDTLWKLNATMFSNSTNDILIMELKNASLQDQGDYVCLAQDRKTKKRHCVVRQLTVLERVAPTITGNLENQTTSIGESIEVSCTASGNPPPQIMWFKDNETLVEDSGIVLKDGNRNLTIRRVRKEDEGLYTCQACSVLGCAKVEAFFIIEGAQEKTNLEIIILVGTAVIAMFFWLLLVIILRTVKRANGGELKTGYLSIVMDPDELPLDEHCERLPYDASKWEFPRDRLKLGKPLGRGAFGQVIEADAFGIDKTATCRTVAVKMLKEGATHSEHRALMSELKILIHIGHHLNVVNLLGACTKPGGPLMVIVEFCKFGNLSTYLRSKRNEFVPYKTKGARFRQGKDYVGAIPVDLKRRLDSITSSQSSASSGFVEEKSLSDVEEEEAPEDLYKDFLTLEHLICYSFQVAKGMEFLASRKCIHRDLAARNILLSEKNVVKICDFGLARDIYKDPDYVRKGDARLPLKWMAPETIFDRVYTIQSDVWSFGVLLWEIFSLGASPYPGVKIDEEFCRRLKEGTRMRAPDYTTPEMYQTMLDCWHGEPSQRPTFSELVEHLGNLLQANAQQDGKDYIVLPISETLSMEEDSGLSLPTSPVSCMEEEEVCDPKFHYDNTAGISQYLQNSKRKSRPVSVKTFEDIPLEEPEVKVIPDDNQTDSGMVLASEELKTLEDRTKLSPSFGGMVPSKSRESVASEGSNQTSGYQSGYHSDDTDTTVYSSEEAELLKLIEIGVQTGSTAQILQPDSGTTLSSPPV
T4 sequence (P49841 whole entry): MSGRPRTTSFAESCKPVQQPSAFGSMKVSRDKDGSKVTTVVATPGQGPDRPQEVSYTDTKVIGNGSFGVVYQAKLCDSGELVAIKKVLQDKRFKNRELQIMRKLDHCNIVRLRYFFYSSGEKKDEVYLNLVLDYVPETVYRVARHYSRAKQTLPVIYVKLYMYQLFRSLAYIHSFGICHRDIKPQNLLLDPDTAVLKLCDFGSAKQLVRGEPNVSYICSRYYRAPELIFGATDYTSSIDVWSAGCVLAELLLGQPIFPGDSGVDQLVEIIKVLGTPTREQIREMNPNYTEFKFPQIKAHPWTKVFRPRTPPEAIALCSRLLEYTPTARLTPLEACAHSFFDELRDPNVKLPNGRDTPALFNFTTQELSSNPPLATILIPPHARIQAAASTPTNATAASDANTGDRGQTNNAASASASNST
T2 sequence (P23443 whole entry): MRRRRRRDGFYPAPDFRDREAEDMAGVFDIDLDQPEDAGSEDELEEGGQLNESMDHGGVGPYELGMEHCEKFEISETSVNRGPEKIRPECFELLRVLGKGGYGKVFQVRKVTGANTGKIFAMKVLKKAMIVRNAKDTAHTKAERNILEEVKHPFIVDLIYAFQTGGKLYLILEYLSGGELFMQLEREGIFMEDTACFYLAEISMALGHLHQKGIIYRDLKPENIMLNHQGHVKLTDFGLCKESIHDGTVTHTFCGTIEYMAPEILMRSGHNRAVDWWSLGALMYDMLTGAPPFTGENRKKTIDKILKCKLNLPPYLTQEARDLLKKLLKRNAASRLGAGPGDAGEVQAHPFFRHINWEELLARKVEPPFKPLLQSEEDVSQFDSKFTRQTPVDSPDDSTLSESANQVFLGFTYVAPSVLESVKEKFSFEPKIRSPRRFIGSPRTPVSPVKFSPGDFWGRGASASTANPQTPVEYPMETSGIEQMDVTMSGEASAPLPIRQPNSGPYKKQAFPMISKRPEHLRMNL
T1 sequence (O60674 whole entry): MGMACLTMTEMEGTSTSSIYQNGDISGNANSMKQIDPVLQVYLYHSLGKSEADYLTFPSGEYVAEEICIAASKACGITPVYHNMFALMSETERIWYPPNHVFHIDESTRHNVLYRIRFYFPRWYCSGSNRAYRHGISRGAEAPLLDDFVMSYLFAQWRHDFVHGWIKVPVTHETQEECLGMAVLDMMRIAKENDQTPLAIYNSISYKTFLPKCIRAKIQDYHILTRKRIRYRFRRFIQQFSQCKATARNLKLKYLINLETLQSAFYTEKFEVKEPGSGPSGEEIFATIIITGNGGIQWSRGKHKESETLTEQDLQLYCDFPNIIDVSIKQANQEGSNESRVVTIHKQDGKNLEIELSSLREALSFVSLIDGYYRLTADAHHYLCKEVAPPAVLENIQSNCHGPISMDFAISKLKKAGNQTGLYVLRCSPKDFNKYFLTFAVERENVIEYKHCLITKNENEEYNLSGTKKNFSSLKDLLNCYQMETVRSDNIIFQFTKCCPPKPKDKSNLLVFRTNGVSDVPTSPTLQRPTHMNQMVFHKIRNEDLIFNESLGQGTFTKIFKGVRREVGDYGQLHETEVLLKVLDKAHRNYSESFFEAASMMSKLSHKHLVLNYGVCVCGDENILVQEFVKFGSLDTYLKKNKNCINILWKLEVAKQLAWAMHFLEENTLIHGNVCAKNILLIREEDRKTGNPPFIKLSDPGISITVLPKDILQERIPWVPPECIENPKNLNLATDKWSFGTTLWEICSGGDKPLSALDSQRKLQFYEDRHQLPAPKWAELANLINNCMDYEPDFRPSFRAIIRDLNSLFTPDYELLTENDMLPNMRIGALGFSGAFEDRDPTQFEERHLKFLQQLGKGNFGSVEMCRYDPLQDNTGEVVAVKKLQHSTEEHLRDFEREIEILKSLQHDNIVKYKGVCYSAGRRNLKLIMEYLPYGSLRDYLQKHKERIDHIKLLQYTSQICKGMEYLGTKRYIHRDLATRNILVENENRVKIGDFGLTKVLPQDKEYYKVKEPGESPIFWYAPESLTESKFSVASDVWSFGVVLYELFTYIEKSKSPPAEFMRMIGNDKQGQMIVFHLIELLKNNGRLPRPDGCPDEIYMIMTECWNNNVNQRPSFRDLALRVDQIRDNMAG
T3 sequence (P36888 27-993): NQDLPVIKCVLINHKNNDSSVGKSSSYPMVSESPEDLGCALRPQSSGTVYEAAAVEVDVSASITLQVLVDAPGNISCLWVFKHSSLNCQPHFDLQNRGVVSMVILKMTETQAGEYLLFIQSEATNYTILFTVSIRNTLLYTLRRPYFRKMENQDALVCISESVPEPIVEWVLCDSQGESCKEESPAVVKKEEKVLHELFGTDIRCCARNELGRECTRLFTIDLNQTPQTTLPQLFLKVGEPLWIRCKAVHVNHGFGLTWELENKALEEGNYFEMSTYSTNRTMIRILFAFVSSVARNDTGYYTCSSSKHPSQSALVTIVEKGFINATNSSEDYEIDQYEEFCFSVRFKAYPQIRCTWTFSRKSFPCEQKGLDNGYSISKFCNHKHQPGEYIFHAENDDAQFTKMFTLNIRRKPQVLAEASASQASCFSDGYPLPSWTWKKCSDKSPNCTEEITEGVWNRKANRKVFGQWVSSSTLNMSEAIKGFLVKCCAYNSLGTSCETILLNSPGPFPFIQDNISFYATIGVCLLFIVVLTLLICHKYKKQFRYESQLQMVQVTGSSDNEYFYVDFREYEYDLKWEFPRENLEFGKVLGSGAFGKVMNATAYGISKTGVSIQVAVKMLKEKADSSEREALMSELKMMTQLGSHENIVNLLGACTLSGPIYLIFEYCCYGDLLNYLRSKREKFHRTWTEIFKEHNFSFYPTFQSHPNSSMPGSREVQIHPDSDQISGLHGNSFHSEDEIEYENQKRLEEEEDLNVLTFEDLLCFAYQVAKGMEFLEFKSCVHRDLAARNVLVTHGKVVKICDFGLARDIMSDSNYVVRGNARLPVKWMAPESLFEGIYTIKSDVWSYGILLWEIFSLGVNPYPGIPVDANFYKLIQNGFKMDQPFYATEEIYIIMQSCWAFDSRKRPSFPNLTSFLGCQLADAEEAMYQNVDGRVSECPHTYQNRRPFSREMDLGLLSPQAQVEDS

| SMILES | VEGF_ADSC\ECFC Angio Hoechst NucArea IC50/EC50 [1] | VEGF_ADSC\ECFC Angio CD31 TubeArea IC50/EC50 [2] | WntCondMedia_Alk Phos C2C12 IC50/EC50 [3] | hJAK2 LANCE IC50/EC50 (hJAK2) | Hela CellCycMod PI 2N IC50/EC50 (HeLa cells) | Hela CellCycMod PI S Phase IC50/EC50 (HeLa cells) | Hela CellCycMod PI 4N IC50/EC50 (HeLa cells) | Hela CellCycMod PI MI IC50/EC50 (HeLa cells) | Hela CellCycMod PI Cell Number IC50/EC50 (HeLa cells) | Basal_Viability ATP HCT116 IC50/EC50 (HCT116) | hp70S6K1 LANCE IC50/EC50 (hp70S6K1 (RPS6KB1)) | GSK3b inh pretreated_Viability ATP HCT116 IC50/EC50 [4] | hFLT3 LANCE IC50/EC50 (hFLT3) | hGSK3b LANCE IC50/EC50 (hGSK3b) | WntCondMedia_bCatenin C2C12 IC50/EC50 [5] | hKDR LANCE IC50/EC50 (hKDR) | Basal_Viability ATP RKO IC50/EC50 (RKO) | Basal_Viability ATP SW480 IC50/EC50 (SW480) | Basal_Viability ATP Colo 320 IC50/EC50 (Colo320) | Basal_Viability ATP DLD-1 IC50/EC50 (DLD-1) | also measured |
| --- | --- | --- | --- | --- | --- | --- | --- | --- | --- | --- | --- | --- | --- | --- | --- | --- | --- | --- | --- | --- | --- |
| Cc1cc(=O)c2c(O)c3c(O)cc(=O)c4c3c3c(cc(O)c1c23)C(C)(C)C=4O [NCGC00160275-03] | 2.074 µM | 0.1005 µM | 2.9111 µM | > 20 µM | > 10 µM | > 10 µM | > 10 µM | > 10 µM | 1.0003 µM | 0.07747 µM | > 20 µM | 0.05735 µM | 1.97 µM | 6.9 µM | 1.0715 µM | > 20 µM | – | – | – | – | Basal_Viability ATP RKO IC50/EC50 (RKO; basal): 0.0754 µM; Basal_Viability ATP SW480 IC50/EC50 (SW480; basal): 0.05797 µM; Basal_Viability ATP Colo 320 IC50/EC50 (Colo320; basal): 0.08199 µM; Basal_Viability ATP DLD-1 IC50/EC50 (DLD-1; basal): 0.07089 µM; Basal_Viability ATP SNU-C1 IC50/EC50 (SNU-C1; basal): 0.3321 µM; Basal_Viability ATP HT-29 IC50/EC50 (HT-29; basal): 3.006 µM |
| COc1cc(NCc2ccc3nc(N)nc(N)c3c2C)cc(OC)c1OC [NCGC00161419-05] | > 10 µM | 4.418 µM | > 20 µM | > 20 µM | > 10 µM | > 10 µM | > 10 µM | > 10 µM | 3.8068 µM | 0.02309 µM | > 20 µM | 0.00392 µM | > 20 µM | > 20 µM | 0.0033 µM | > 20 µM | 0.00272 µM | 0.0591 µM | 0.3859 µM | 0.1951 µM | Basal_Viability ATP SNU-C1 IC50/EC50 (SNU-C1): 5.1323 µM; Basal_Viability ATP HT-29 IC50/EC50 (HT-29): 0.02122 µM |
| COc1ccc2cc1Oc1ccc(cc1)C[C@H]1c3c(cc4c(c3Oc3cc5c(cc3OC)CCN(C)[C@@H]5C2)OCO4)CCN1C [NCGC00161621-03] | > 10 µM | 3.0213 µM | 2.0494 µM | > 20 µM | > 10 µM | > 10 µM | > 10 µM | > 10 µM | 5.5384 µM | 9.5422 µM | > 20 µM | 3.567 µM | > 20 µM | > 20 µM | 5.6301 µM | > 20 µM | 3.787 µM | 0.308 µM | 1.426 µM | 12.3697 µM | Basal_Viability ATP SNU-C1 IC50/EC50 (SNU-C1): 7.483 µM; Basal_Viability ATP HT-29 IC50/EC50 (HT-29): 1.365 µM |

— article PMC4503722, “Novel Phenotypic Outcomes Identified for a Public Collection of Approved Drugs from a Publicly Accessible Panel of Assays” (PLoS ONE, 2015)
